According to patent publication US7314719B2, “Method for increasing productivity of secondary metabolite by conferring drug-resistant mutations” (priority 2001, dated 2008):
Like-named read-outs stand apart in the source and are kept apart here.

Key:
[1] = tested on: S. coelicolor 1147 (wild type) and mutants S-1, SG-1, SG-2; assay: MIC of antibiotics on GYM agar (screening of drug-resistant mutants); assay type: cell-based, Streptomyces coelicolor; settings: for Concentration at which growth was inhibited completely: GYM agar; for MIC: 2 days of incubation on GYM agar
Protocol: The spontaneous streptomycin, gentamicin or rifampicin-resistant mutants of S. coelicolor were obtained as the colonies that grew within 7 days at 30° C. after spores (or cells) were spread on GYM agar (composition is the same as the above GYM agar) containing 5 μg streptomycin per ml or 1.0 μg of gentamicin per ml or 200 μg of rifampicin per ml, respectively (Growth of parental strain was inhibited completely with 1 μg of streptomycin per ml, 0.1 μg of gentamicin per ml or 10 μg of rifampicin per ml). The single colonies grew on screening plates were picked out and inoculated to R4 agar containing 1% of glucose, 0.1% of yeast extract, 0.001% of Casamino Acids, 0.3% of proline, 1% of MgCl2·6H2O, 0.4% of CaCl2·2H2O, 0.002% of K2SO4, 0.56% of TES [N-Tris (hydroxymethyl)methyl-2-aminoethanesulfonic acid], 0.2% of trace elements solution (as described for R2YE medium) and 2% of agar (before adding agar, adjusted to pH 7.2). The R4 plates were incubated at 30° C. for 6 days and the amount of blue pigment actinorhodin produced was compared among wild type strain and mutants, and selected the over-producers among the mutants. Then, the mutants with over-producing actinorhodin were inoculated into R4 liquid medium (composition is the same as the R4 agar, but no agar) in 25 ml of test tubes containing 5 ml medium on an orbital shaker at 30° C., 350 rpm. After incubation for 6 days, 1 ml culture samples were taken and adjusted pH to 8.0. After centrifugation at 1100 g for 5 min., actinorhodin production in supernatants was assayed by measurement of the optical density of supernatants at 633 nm. The highest productivity detected reached 1.6-fold for gentamicin-resistant mutants, 1.8-fold for streptomycin-resistant mutants and 3.0-fold for rifampicin-resistant mutants. The frequencies for such high producers were 5%, 6% and 10%, respectively (see Table 1 and FIG. 7).
The spontaneous geneticin, gentamicin or rifampicin-resistant mutants of S-1 were obtained as colonies that grew on GYM agar containing 2.5 μg of geneticin per ml or 2.5 μg of gentamicin per ml or 200 μg of rifampicin per ml. (Growth of S-1 strain was inhibited completely with 0.5 μg of geneticin per ml, 0.5 μg of gentamicin per ml or 10 μg of rifampicin per ml.). Actinorhodin productivity of mutants was examined using R4 agar plates and R4 liquid medium.
The spontaneous rifampicin-resistant mutants of SG-1 and SG-2 strains were obtained as colonies that grew on GYM agar containing 200 μg of rifampicin per ml.

[2] = tested on: S. coelicolor 1147 and drug-resistant mutants; assay: Resistance level to antibiotics on GYM agar (Table 2); assay type: cell-based, Streptomyces coelicolor; settings: 4 days on GYM agar
[3] = tested on: Streptomyces lividans 66 and mutants; assay: Resistance level to rifampicin and streptomycin (Table 5); assay type: cell-based
Text: A rifampicin-resistant mutant and a streptomycin-and rifampicin-resistant mutant of Streptomyces lividans 66 were produced according to a similar manner to that of Examples 1, 2 or 3, and the actinorhodin production was estimated.

[4] = tested on: Bacillus cereus No. 2045 and mutants; assay: Resistance level to gentamicin and rifampicin (Table 4); assay type: cell-based
Protocol: A gentamicin-resistant mutant and a rifampicin-and gentamicin-resistant mutant of Bacillus cereus No. 2045 were produced according to a similar manner to that of Examples 1, 2 or 3. Those mutants were precultured in bouillon medium for 10 h. Cells (0.1 ml) were inoculated into 5 ml of production medium consisting of (per liter) 20 g of polypeptone, 20 g of corn steep liquor, and 5 g of NaCl (adjusted to pH 7.5 with NaOH) for 2 days at 30° C.

[5] = Streptomyces coelicolor, 48 h, strain S. coelicolor 1147 (wild type), read-out: MIC
[6] = parental strain (S. coelicolor wild type)
[7] = strain S. lividans 66, wild-type
[8] = strain B. cereus No. 2045, wild-type

CN[C@@H]1[C@@H](O)[C@@H](O[C@@H]2[C@@H](O)[C@H](O[C@H]3O[C@H]([C@@H](C)O)[C@@H](O)[C@H](O)[C@H]3N)[C@@H](N)C[C@H]2N)OC[C@]1(C)O [Geneticin, geneticin]
Concentration at which growth was inhibited completely ([1]; S-1 strain): 0.5 μg per ml
MIC ([1]; Streptomyces coelicolor, 48 h, strain S-1 (str), read-out: MIC): 0.2 µg/mL
Resistance level ([2]; strain 1147 (wild type)): 0.2 µg/mL
Resistance level ([2]; strain SGe-1): 0.5 µg/mL
Resistance level ([2]; strain SGe-2): 1 µg/mL
Resistance level ([2]; strain SGe-3): 1 µg/mL

[H]/N=C(/N)N[C@H]1[C@H](O)[C@@H](O)[C@H](O[C@@H]2O[C@@H](C)[C@](O)(C=O)[C@H]2O[C@@H]2O[C@@H](CO)[C@H](O)[C@@H](O)[C@@H]2NC)[C@@H](N/C(N)=N\[H])[C@@H]1O [Streptomycin, streptomycin]
MIC [1, 5]: 1 µg/mL
Concentration at which growth was inhibited completely [1, 6]: 1 μg per ml
Resistance level ([2]; S. coelicolor strain SR-1): 50 µg/mL
Resistance level ([2]; S. coelicolor strain SR-2): 50 µg/mL
Resistance level ([2]; S. coelicolor strain SR-3): 50 µg/mL
Resistance level ([2]; strain 1147 (wild type)): 1 µg/mL
Resistance level ([2]; strain S-1): 100 µg/mL
Resistance level ([2]; strain S-2): 5 µg/mL
Resistance level ([2]; strain S-3): 10 µg/mL
Resistance level ([2]; strain SG-1): 100 µg/mL
Resistance level ([2]; strain SG-2): 100 µg/mL
Resistance level ([2]; strain SG-3): 100 µg/mL
Resistance level ([2]; strain SGR-1): 100 µg/mL
Resistance level ([2]; strain SGR-2): 100 µg/mL
Resistance level ([2]; strain SGR-3): 50 µg/mL
Resistance level ([2]; strain SGR-4): 50 µg/mL
Resistance level ([2]; strain SGR-5): 50 µg/mL
Resistance level ([2]; strain SGR-6): 100 µg/mL
Resistance level ([2]; strain SGe-1): 100 µg/mL
Resistance level ([2]; strain SGe-2): 100 µg/mL
Resistance level ([2]; strain SGe-3): 100 µg/mL
Resistance level ([2]; strain SR-4): 100 µg/mL
Resistance level ([2]; strain SR-5): 100 µg/mL
Resistance level ([2]; strain SR-6): 50 µg/mL
Resistance level ([2]; strain SR-7): 50 µg/mL
Resistance level ([3]; S. lividans strain SR-1 (rif)): 1.0 µg/mL
Resistance level ([3]; S. lividans strain SR-2 (rif)): 0.8 µg/mL
Resistance level ([3]; S. lividans strain SR-3 (rif)): 1.0 µg/mL
Resistance level [3, 7]: 1.0 µg/mL
Resistance level ([3]; strain SRS-1 (rif-str)): 50 µg/mL
Resistance level ([3]; strain SRS-2 (rif-str)): 120 µg/mL
Resistance level ([3]; strain SRS-3 (rif-str)): 100 µg/mL

gentamicin
Concentration at which growth was inhibited completely ([1]; S-1 strain): 0.5 μg per ml
Concentration at which growth was inhibited completely [1, 6]: 0.1 μg per ml
MIC ([1]; strain S-1 (str)): Gentamicin(0.1) μg/ml
MIC ([1]; strain S. coelicolor 1147 (wild type)): Gentamicin (0.1) μg/ml
Resistance level ([2]; strain 1147 (wild type)): 0.1 µg/mL
Resistance level ([2]; strain G-1): 0.3 µg/mL
Resistance level ([2]; strain G-2): 0.3 µg/mL
Resistance level ([2]; strain G-3): 0.3 µg/mL
Resistance level ([2]; strain SG-1): 0.3 µg/mL
Resistance level ([2]; strain SG-2): 0.3 µg/mL
Resistance level ([2]; strain SG-3): 0.3 µg/mL
Resistance level ([2]; strain SGR-1): 0.2 µg/mL
Resistance level ([2]; strain SGR-2): 0.2 µg/mL
Resistance level ([2]; strain SGR-3): 0.3 µg/mL
Resistance level ([2]; strain SGR-4): 0.2 µg/mL
Resistance level ([2]; strain SGR-5): 0.5 µg/mL
Resistance level ([2]; strain SGR-6): 0.3 µg/mL
Resistance level [4, 8]: 0.8 µg/mL
Resistance level ([4]; strain BG-1 (gen)): 4.0 µg/mL
Resistance level ([4]; strain BG-2 (gen)): 4.0 µg/mL
Resistance level ([4]; strain BG-3 (gen)): 4.5 µg/mL
Resistance level ([4]; strain BGR-1 (gen-rif)): 4.5 µg/mL
Resistance level ([4]; strain BGR-2 (gen-rif)): 5.0 µg/mL
Resistance level ([4]; strain BGR-3 (gen-rif)): 5.0 µg/mL

CO[C@H]1/C=C/O[C@@]2(C)Oc3c(C)c(O)c4c(O)c(c(/C=N/N5CCN(C)CC5)c(O)c4c3C2=O)NC(=O)/C(C)=C\C=C\[C@H](C)[C@H](O)[C@@H](C)[C@@H](O)[C@@H](C)[C@H](OC(C)=O)[C@@H]1C [Rifampicin, rifampicin]
Concentration at which growth was inhibited completely ([1]; S-1 strain): 10 μg per ml
Concentration at which growth was inhibited completely ([1]; SG-1 strain): 10 μg per ml
Concentration at which growth was inhibited completely ([1]; SG-2 strain): 10 μg per ml
MIC [1, 5]: 10 µg/mL
Concentration at which growth was inhibited completely [1, 6]: 10 μg per ml
MIC ([1]; strain S-1 (str)): Rifampicin(10) μg/ml
MIC ([1]; strain SG-1 (str-gen)): Rifampicin(10) μg/ml
MIC ([1]; strain SG-2 (str-gen)): Rifampicin(10) μg/ml
Resistance level ([2]; S. coelicolor strain SR-1): 50 µg/mL
Resistance level ([2]; S. coelicolor strain SR-2): 150 µg/mL
Resistance level ([2]; S. coelicolor strain SR-3): 400 µg/mL
Resistance level ([2]; strain 1147 (wild type)): 10 µg/mL
Resistance level ([2]; strain R-1): 400 µg/mL
Resistance level ([2]; strain R-2): 400 µg/mL
Resistance level ([2]; strain R-3): 400 µg/mL
Resistance level ([2]; strain SGR-1): 400 µg/mL
Resistance level ([2]; strain SGR-2): 400 µg/mL
Resistance level ([2]; strain SGR-3): 300 µg/mL
Resistance level ([2]; strain SGR-4): 400 µg/mL
Resistance level ([2]; strain SGR-5): 400 µg/mL
Resistance level ([2]; strain SGR-6): 300 µg/mL
Resistance level ([2]; strain SR-4): 400 µg/mL
Resistance level ([2]; strain SR-5): 400 µg/mL
Resistance level ([2]; strain SR-6): 400 µg/mL
Resistance level ([2]; strain SR-7): 400 µg/mL
Resistance level [4, 8]: 1.0 µg/mL
Resistance level ([4]; strain BG-1 (gen)): 1.0 µg/mL
Resistance level ([4]; strain BG-2 (gen)): 0.8 µg/mL
Resistance level ([4]; strain BG-3 (gen)): 1.0 µg/mL
Resistance level ([4]; strain BGR-1 (gen-rif)): 100 µg/mL
Resistance level ([4]; strain BGR-2 (gen-rif)): 120 µg/mL
Resistance level ([4]; strain BGR-3 (gen-rif)): 150 µg/mL
Resistance level ([3]; S. lividans strain SR-1 (rif)): 200 µg/mL
Resistance level ([3]; S. lividans strain SR-2 (rif)): 400 µg/mL
Resistance level ([3]; S. lividans strain SR-3 (rif)): 400 µg/mL
Resistance level [3, 7]: 10 µg/mL
Resistance level ([3]; strain SRS-1 (rif-str)): 400 µg/mL
Resistance level ([3]; strain SRS-2 (rif-str)): 350 µg/mL
Resistance level ([3]; strain SRS-3 (rif-str)): 400 µg/mL
